Reference: ChEMBL document CHEMBL5316381, “Discovery of [1,2,3]Triazolo[4,5-c]quinoline Derivatives as a New Class of Ataxia-Telangiectasia Mutated Kinase Inhibitors” (ACS Med Chem Lett, 2023)

Molecular target: Serine-protein kinase ATM (Homo sapiens, UniProt Q13315)
Experiment: Inhibition of ATM (unknown origin) using GST-cMyc-p53 as substrate incubated for 30 mins in presence of Mg/ATP mix by HTRF-based analysis

Serine-protein kinase ATM, sequence (Q13315 whole entry): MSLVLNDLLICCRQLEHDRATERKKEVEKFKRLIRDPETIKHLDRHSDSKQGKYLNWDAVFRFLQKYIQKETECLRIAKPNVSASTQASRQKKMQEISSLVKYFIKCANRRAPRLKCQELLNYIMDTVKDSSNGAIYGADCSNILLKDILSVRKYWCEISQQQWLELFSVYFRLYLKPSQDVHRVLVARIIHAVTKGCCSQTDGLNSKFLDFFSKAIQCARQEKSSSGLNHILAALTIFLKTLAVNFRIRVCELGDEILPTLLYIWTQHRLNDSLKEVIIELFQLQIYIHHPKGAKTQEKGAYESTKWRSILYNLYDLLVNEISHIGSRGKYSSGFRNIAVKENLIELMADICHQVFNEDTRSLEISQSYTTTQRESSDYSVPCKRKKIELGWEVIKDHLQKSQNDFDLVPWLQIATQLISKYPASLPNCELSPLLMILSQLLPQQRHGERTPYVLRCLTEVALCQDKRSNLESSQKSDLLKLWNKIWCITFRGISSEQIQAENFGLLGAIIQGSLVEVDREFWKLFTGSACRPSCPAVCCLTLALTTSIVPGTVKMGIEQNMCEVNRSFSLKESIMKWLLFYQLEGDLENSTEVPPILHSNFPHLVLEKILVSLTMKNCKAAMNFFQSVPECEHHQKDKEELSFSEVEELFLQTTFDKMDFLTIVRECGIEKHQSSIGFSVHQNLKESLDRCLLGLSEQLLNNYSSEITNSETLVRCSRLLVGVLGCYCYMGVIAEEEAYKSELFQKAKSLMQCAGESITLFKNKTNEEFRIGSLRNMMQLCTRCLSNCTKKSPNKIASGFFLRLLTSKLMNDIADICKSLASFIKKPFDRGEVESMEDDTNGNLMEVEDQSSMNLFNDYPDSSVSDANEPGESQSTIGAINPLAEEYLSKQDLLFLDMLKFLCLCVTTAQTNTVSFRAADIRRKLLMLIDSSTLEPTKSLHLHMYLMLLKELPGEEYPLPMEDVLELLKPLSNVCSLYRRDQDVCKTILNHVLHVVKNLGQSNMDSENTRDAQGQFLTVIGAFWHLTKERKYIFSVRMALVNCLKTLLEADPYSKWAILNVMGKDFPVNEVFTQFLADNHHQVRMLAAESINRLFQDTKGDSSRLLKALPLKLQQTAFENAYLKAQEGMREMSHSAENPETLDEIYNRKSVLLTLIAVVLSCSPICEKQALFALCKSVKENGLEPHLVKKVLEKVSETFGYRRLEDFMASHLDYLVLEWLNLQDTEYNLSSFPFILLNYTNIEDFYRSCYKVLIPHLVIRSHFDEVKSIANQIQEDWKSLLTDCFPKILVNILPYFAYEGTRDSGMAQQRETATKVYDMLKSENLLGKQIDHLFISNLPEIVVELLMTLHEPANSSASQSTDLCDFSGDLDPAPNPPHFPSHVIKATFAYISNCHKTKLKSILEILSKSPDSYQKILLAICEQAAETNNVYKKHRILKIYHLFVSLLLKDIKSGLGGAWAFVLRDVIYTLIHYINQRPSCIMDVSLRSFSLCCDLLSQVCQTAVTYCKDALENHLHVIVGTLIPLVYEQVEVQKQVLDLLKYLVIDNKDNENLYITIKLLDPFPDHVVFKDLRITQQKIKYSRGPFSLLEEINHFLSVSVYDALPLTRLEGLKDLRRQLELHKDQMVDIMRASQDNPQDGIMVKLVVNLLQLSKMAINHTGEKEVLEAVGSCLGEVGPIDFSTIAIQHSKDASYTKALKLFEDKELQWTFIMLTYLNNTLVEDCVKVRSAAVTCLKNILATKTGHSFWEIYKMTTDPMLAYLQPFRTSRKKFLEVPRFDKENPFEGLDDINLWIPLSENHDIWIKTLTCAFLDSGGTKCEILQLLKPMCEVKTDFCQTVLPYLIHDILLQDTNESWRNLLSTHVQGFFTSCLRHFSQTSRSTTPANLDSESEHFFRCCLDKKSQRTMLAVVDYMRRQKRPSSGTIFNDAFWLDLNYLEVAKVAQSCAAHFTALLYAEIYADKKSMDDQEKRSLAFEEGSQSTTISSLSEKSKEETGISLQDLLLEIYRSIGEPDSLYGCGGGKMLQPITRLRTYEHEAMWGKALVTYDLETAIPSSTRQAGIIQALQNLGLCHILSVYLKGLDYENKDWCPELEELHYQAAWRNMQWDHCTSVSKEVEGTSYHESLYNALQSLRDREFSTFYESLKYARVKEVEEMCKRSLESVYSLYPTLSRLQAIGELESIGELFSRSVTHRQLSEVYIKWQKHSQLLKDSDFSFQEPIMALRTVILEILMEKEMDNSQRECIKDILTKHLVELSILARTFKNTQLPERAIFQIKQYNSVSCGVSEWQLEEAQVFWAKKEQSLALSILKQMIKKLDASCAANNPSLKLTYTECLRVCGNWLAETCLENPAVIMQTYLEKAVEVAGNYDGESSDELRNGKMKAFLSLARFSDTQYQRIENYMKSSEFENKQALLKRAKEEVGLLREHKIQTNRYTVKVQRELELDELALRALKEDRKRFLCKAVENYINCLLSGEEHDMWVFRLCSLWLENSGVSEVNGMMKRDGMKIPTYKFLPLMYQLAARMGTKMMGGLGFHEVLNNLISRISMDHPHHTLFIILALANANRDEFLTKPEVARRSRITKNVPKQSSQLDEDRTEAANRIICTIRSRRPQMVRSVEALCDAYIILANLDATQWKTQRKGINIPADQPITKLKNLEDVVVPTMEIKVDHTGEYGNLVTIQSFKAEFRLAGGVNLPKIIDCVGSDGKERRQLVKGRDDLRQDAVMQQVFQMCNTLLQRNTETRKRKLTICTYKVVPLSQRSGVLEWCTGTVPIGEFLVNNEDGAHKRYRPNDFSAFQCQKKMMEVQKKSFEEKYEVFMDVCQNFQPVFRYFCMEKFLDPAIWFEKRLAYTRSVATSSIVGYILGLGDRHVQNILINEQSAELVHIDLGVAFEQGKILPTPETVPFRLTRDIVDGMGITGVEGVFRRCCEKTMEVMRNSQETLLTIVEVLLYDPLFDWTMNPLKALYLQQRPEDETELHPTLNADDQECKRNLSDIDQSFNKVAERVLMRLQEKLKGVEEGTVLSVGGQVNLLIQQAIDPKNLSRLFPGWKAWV

IC50 [nM]	Compound
4	C[C@H](c1ccc(F)cc1)n1nnc2cnc3ccc(-c4ccc(N)nc4)cc3c21
13	CC(=O)Nc1ccc(-c2ccc3ncc4nnn([C@H](C)c5ccccc5)c4c3c2)cn1
9	CC[C@H](c1ccccc1)n1nnc2cnc3ccc(-c4ccc(N)nc4)cc3c21
19	C[C@H](c1ccccc1)n1nnc2cnc3ccc(-c4ccc(OCCN(C)C)nc4)cc3c21
10	C[C@H](c1ccccc1)n1nnc2cnc3ccc(-c4ccc(OCCCCN(C)C)nc4)cc3c21
4	C[C@H](c1cccc(F)c1)n1nnc2cnc3ccc(-c4ccc(N)nc4)cc3c21
57	C[C@H](c1ccccc1)n1nnc2cnc3ccc(-c4ccc(F)nc4)cc3c21
15	C[C@H](c1ccccc1)n1nnc2cnc3ccc(-c4cnc(N)nc4)cc3c21
52	C[C@H](c1ccccc1)n1nnc2cnc3ccc(-c4ccc(O)cc4)cc3c21
22	C[C@H](c1ccccc1)n1nnc2cnc3ccc(-c4ccnc(N)c4)cc3c21
243	Cn1nnc2cnc3ccc(-c4ccc(N)nc4)cc3c21
167	C[C@H](c1ccccc1)n1nnc2cnc3ccc(-c4ccc(C#N)nc4)cc3c21
2	C[C@H](c1ccccc1)n1nnc2cnc3ccc(-c4ccc(OCCCN5CCN(C)CC5)nc4)cc3c21
5	COc1cccc([C@@H](C)n2nnc3cnc4ccc(-c5ccc(N)nc5)cc4c32)c1
482	C[C@H](c1ccccc1)n1nnc2cnc3ccc(-c4cnc(N(C)C)nc4)cc3c21
8	Nc1ccc(-c2ccc3ncc4nnn(Cc5ccccc5)c4c3c2)cn1
31	C[C@H](c1ccccc1)n1nnc2cnc3ccc(-c4ccc(Cl)nc4)cc3c21
45	C[C@@H](c1ccccc1)n1nnc2cnc3ccc(-c4ccc(N)nc4)cc3c21
20	CC(C)n1nnc2cnc3ccc(-c4ccc(N)nc4)cc3c21
